The results in this text go back to patent US20250129069A1, “TRIAZOLO WRN INHIBITORS” (Nimbus Wadjet, Inc., priority 2023, published 2025).

Some results are limits rather than exact numbers.

Assay [1] deals with human Werner helicase (WRN, amino acids 517-1235 with L1074F point mutation) (Homo sapiens (Human), UniProt Q14191, L1074F). The assay is described as follows: WRN (BV08) ADP-Glo assay. Format: biochemical. To be noted: human WRN (aa 517-1235, L1074F), read-out: ADP-Glo_hWRN_IC50. Summed up:
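ADP-Glo luminescence read after 60 min, 25 °C reaction of 0.15 nM WRN (517-1235, L1074F, Sf9-expressed, tag removed) with 0.1 nM DNA duplex and 5 μM ATP, following 15 min compound preincubation; 20 mM Bicine pH 7.5, 1% DMSO. IC50 from 3- or 4-parameter fit of % inhibition.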
Background: In ADP-Glo the light output rises with the ADP produced.

Assay [2] concerns p21 induction in HCT 116 cells. The assay is described as follows: p21 induction in cells (In-Cell Western, p21/GAPDH ratio). In kind it is cell-based. To be noted: Homo sapiens, 24 h compound incubation, read-out: p21_EC50. In a few lines:
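EC50 values come from nonlinear fits of percent activation, defined by the 800/700 nm p21-to-GAPDH ratio scaled between DMSO (low) and internal WRN inhibitor (high) controls. In-Cell Western read after 24 h compound exposure of HCT 116 cells at 37° C. Duplicate 11-point series, 2-fold steps, usually starting at 10 μM.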

Chain of human Werner helicase (WRN, amino acids 517-1235 with L1074F point mutation) (Q14191 other isoform, or with tags, fused parts or gaps L1074F (already in the parent)): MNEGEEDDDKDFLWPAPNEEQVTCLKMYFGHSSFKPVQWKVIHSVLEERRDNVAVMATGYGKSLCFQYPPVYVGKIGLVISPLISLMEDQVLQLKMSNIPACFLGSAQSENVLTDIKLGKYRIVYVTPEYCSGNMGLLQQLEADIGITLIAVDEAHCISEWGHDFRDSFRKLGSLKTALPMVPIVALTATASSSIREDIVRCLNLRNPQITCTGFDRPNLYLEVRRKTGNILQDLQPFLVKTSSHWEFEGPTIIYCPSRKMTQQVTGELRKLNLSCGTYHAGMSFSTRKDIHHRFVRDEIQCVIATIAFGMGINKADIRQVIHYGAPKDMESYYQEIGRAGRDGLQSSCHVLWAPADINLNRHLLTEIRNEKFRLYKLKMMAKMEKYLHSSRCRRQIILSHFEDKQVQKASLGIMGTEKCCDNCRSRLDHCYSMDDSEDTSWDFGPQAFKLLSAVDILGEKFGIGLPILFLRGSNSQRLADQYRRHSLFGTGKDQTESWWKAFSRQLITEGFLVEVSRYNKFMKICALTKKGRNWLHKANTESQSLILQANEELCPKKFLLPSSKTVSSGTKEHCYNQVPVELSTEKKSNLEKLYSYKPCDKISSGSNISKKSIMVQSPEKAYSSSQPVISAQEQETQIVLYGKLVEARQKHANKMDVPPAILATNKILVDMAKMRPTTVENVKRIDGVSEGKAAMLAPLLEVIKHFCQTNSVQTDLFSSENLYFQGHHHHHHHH

For `CCc1c(N2CCN(C(=O)c3cccnc3OC(F)F)[C@H]3CC[C@@H]32)c(=O)c2nn(C3=CCOCC3)nc2n1CC(=O)NC12CC(C(C)C)(C1)C2` [Compound I-207, 2-{6-[(1S,6S)-5-[2-(difluoromethoxy)pyridine-3-carbonyl]-2,5-diazabicyclo[4.2.0]octan-2-yl]-2-(3,6-dihydro-2H-pyran-4-yl)-5-ethyl-7-oxo-2H,4H,7H-[1,2,3]triazolo[4,5-b]pyridin-4-yl}-N-[3-(propan-2-yl)bicyclo[1.1.1]pentan-1-yl]acetamide], the IC50 in assay [1] was in the range of 5 to 50 nM. Also, in assay [2], the EC50 lay in the range of 500 to 2000 nM.
For `CCc1c(N2CCN(C(=O)c3ncnc(C)c3O)[C@H]3CC[C@@H]32)c(=O)c2nn(C3CC4(COC4)C3)nc2n1CC(=O)NC12CC(C(C)C)(C1)C2` [Compound I-160, 2-{5-ethyl-6-[(1S,6S)-5-(5-hydroxy-6-methylpyrimidine-4-carbonyl)-2,5-diazabicyclo[4.2.0]octan-2-yl]-2-{2-oxaspiro[3.3]heptan-6-yl}-7-oxo-2H,4H,7H-[1,2,3]triazolo[4,5-b]pyridin-4-yl}-N-[3-(propan-2-yl)bicyclo[1.1.1]pentan-1-yl]acetamide] the same measures were 5 to 50 nM and 2000 to 5000 nM.
Taken in the same sequence, the figures for `CCc1c(N2CCN(C(=O)c3ncnc(C)c3O)[C@H]3CC[C@@H]32)c(=O)c2nn(-c3ccnc(OC)c3)nc2n1CC(=O)NC1CC2(CCC(F)(F)CC2)C1` [Compound I-68, N-{7,7-difluorospiro[3.5]nonan-2-yl}-2-{5-ethyl-6-[(1S,6S)-5-(5-hydroxy-6-methylpyrimidine-4-carbonyl)-2,5-diazabicyclo[4.2.0]octan-2-yl]-2-(2-methoxypyridin-4-yl)-7-oxo-2H,4H,7H-[1,2,3]triazolo[4,5-b]pyridin-4-yl}acetamide] were 5 to 50 nM and > 5000 nM.
For `CCc1c(N2CCN(C(=O)c3c(O)ccc4ncoc34)CC2)c(=O)c2nn(C(C)C)nc2n1CC(=O)Nc1ccc(C(F)(F)F)cc1Cl` [Compound I-139, N-[2-chloro-4-(trifluoromethyl)phenyl]-2-{5-ethyl-6-[4-(6-hydroxy-1,3-benzoxazole-7-carbonyl)piperazin-1-yl]-7-oxo-2-(propan-2-yl)-2H,4H,7H-[1,2,3]triazolo[4,5-b]pyridin-4-yl}acetamide], the IC50 in assay [1] is ≤ 5 nM. The EC50 in assay [2] is ≤ 500 nM.
Taken in the same sequence, the figures for `CCc1c([C@]23CCN(C(=O)c4ncnc(C)c4O)C[C@H]2C3)c(=O)c2nn(-c3ccnc(OC)c3)nc2n1CC(=O)NC12CC(C(C)C)(C1)C2` (relative stereo) [Compound I-41, rel-2-{5-ethyl-6-[(1R,6S)-3-(5-hydroxy-6-methylpyrimidine-4-carbonyl)-3-azabicyclo[4.1.0]heptan-6-yl]-2-(2-methoxypyridin-4-yl)-7-oxo-2H,4H,7H-[1,2,3]triazolo[4,5-b]pyridin-4-yl}-N-[3-(propan-2-yl)bicyclo[1.1.1]pentan-1-yl]acetamide] were 5 to 50 nM and 2000 to 5000 nM.
Taken in the same sequence, the figures for `CCc1c(C23CCN(C(=O)c4ncnc(C)c4O)CC2C3)c(=O)c2nn(-c3ccnc(OC)c3)nc2n1CC(=O)NC12CC(C(C)C)(C1)C2` [Compound I-42, rel-2-{5-ethyl-6-[(1R,6S)-3-(5-hydroxy-6-methylpyrimidine-4-carbonyl)-3-azabicyclo[4.1.0]heptan-6-yl]-2-(2-methoxypyridin-4-yl)-7-oxo-2H,4H,7H-[1,2,3]triazolo[4,5-b]pyridin-4-yl}-N-[3-(propan-2-yl)bicyclo[1.1.1]pentan-1-yl]acetamide] were 5 to 50 nM and 500 to 2000 nM.
